We go through 5 compounds from ChEMBL document CHEMBL1201862, “PubChem BioAssay data set” (2004).

Holding throughout (assay): NCI tumour cell line growth inhibition, 48 h
Experiment [1] has as its system ACHN.
The test system of experiment [2] is CAKI-1.
In experiment [3] the test system is COLO 205.
Experiment [4] relates to DU-145.
For experiment [5], the system named is EKVX.
Experiment [6] deals with HCT-15.
Experiment [7] deals with LOX IMVI.
For experiment [8], the system named is M14.
Experiment [9] relates to MDA-MB-231.
The test system of experiment [10] is NCI-H226.
The subject of experiment [11] is NCI-H23.
The subject of experiment [12] is NCI-H460.
Experiment [13] concerns NCI/ADR-RES.
The test system of experiment [14] is RPMI-8226.
Experiment [15] deals with RXF 393.
Experiment [16] has as its system SK-MEL-28.
Experiment [17] deals with SN12C.
The test system of experiment [18] is SNB-75.
Experiment [19] relates to SW-620.
Experiment [20] has as its system T47D.

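A five-concentration, 48-hour dose response in 96-well plates underlies each endpoint, interpolated linearly between surrounding concentrations. GI50 is the concentration that inhibits growth by half.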 The source made the active and inactive calls. Cut-off read from the data, not from the text of the source: active = GI50 up to about 1.1 µM and inactive = higher.

Turning to `O=C1NNC(=O)c2ccccc2SSc2ccccc2C(=O)NNC(=O)c2ccccc2SSc2ccccc21`, the GI50 was 14 µM (inactive) in experiment [1]; 13.2 µM (inactive) in experiment [2]; 17.2 µM (inactive) in experiment [3]; 21.4 µM (inactive) in [4]; 18.1 µM (inactive) in experiment [5]; 8.99 µM in experiment [6]. The GI50 in experiment [7] was 12 µM (inactive); in [8], 24.4 µM (inactive); in experiment [9], 32.4 µM (inactive); in experiment [10], > 50 µM (inactive); in [11], 9.33 µM (inactive); in experiment [12], 5.97 µM (inactive). For the same compound, the GI50 in experiment [13] is 17.8 µM (inactive); in [14], 34 µM (inactive); in experiment [15], > 50 µM (inactive); in experiment [16] it was 45.5 µM (inactive); in experiment [17], 12.9 µM (inactive); in [18] it was 40.1 µM (inactive). In addition, the GI50 is 8.59 µM (inactive) in [19] and 28.8 µM (inactive) in [20].

For `CCOP(=O)(OCC)C(Nc1ccc(Br)cc1)c1cccc([N+](=O)[O-])c1` (stereo not given), the GI50 in [1] is 18.3 µM (inactive); in experiment [2], 22.1 µM (inactive); in experiment [3], 13.2 µM (inactive); in [4], 32.8 µM (inactive); in experiment [5] it was 2.99 µM (inactive); in experiment [6], 14.5 µM. For the same compound, the GI50 in experiment [7] was 10.4 µM (inactive); in [8] it was 17.1 µM (inactive); in experiment [9], 15 µM (inactive); in experiment [10] it was 16.7 µM (inactive); in [11] it was 20.7 µM (inactive); in experiment [12], 14.1 µM (inactive). Further, the GI50 in experiment [13] is 13.5 µM (inactive); in experiment [14] it was 28.2 µM (inactive); in [15], 14.4 µM (inactive); in experiment [16] it was 15.2 µM (inactive); in [17], 18.8 µM (inactive); in experiment [18], 29.2 µM (inactive). For the same compound, the results for the GI50 in experiment [19] and in experiment [20] were 16.9 µM (inactive) and 12.6 µM (inactive), respectively.

As for `CNc1ncc(-c2nnnn2-c2ccccc2)c(CN(C)C)n1`, the GI50 in [1] is > 100 µM (inactive); in experiment [2], > 100 µM (inactive); in [3], > 100 µM (inactive); in experiment [4], > 100 µM (inactive); in [5] it was > 100 µM (inactive); in experiment [6], greater than 100 µM. In addition, the GI50 in [7], in experiment [8], in experiment [9], in experiment [10], in [11] and in experiment [12] was > 100 µM (inactive) throughout. The GI50 in experiment [13], in experiment [14], in experiment [15], in experiment [16], in [17] and in experiment [18] was > 100 µM (inactive) in each case. For the same compound, the GI50 in [19] and in experiment [20] was > 100 µM (inactive) in each case.

Turning to `COc1ccc(NC(=S)N/N=C2\C(=O)Nc3ccccc32)cc1`, the GI50 in experiment [1] is 6.5 µM (inactive); in experiment [2], 5.11 µM (inactive); in [3] it was 6.52 µM (inactive); in experiment [4] it was 13.6 µM (inactive); in experiment [5], 9.14 µM (inactive); in experiment [6] it was 0.984 µM. For the same compound, the GI50 in experiment [7] is 2.92 µM (inactive); in [8], 21.9 µM (inactive); in [9] it was 30.9 µM (inactive); in experiment [10] it was 8.97 µM (inactive); in experiment [11], 14.7 µM (inactive); in experiment [12], 3.13 µM (inactive). In addition, the GI50 in experiment [13] is 2.07 µM (inactive); in [14], 31.4 µM (inactive); in [15], 9.27 µM (inactive); in [16], 43.1 µM (inactive); in experiment [17] it was 40.4 µM (inactive); in experiment [18], 48 µM (inactive). Further, the GI50 in experiment [19] was 6.28 µM (inactive); in experiment [20], 7.98 µM (inactive).

For the compound `O=C(Cn1ccnc1[N+](=O)[O-])NCCO` [ETANIDAZOLE], the GI50 in [1] was > 100 µM (inactive); in experiment [2], > 100 µM (inactive); in [3] it was > 100 µM (inactive); in experiment [4] it was > 100 µM (inactive); in experiment [5], > 100 µM (inactive); in [6] it was greater than 100 µM. In addition, the GI50 in experiment [7] is > 100 µM (inactive); in experiment [8] it was > 100 µM (inactive); in experiment [9], > 100 µM (inactive); in experiment [10], > 100 µM (inactive); in experiment [11] it was > 100 µM (inactive); in experiment [12], 27.5 µM (inactive). In addition, the GI50 in [13], in experiment [14], in experiment [15], in [16], in [17] and in experiment [18] was > 100 µM (inactive) in each case. In addition, the GI50 in experiment [19] and in experiment [20] was > 100 µM (inactive) in each case.
